Reference: patent US20250197905A1, “LEGIONAMINIC ACID GLYCOSYLTRANSFERASES FOR CHEMOENZYMATIC SYNTHESIS OF GLYCANS AND GLYCOCONJUGATES” (The Regents of the University of California, priority 2022, published 2025)
“And” between values parts separate entries of the source, which are not always exact repeats. Equal values may be shown once.

Legend:
[1] = tested on: LpCLS or NmCSS, with or without PmAldolase; type: biochemical
MBP-AbGtr18-His6 = type: biochemical, A. baumannii K8
His6-AbGtr18 [2] = type: biochemical, A. baumannii K8
His6-AbGtr18 [3] = assay: Effects of metal ions, EDTA, and DTT on the activity of His6-AbGtr18; type: biochemical, A. baumannii K8; details: donor CMP-Leg5,7Ac2; for Effect on the activity of AbGtr18: 10 mM additive, 40° C., 30 minutes, pH 6.0
Experimental: Effects of metal ions, EDTA, and a reducing reagent DTT on the activity of His6-AbGtr18. Enzymatic assays were carried out in duplicate at 40° C. for 30 minutes in a total volume of 10 μL in citric acid-sodium citrate buffer ([…], pH 6.0) containing 1 mM CMP-Leg5,7Ac2, 1 mM GalNAcα2AA, His6-AbGtr18 (0.64 μM), and 10 mM of CaCl2), CuSO4, MgCl2, MnCl2, NiSO4, ZnCl2, ethylenediaminetetraacetic acid (EDTA), or dithiothreitol (DTT). Reactions without metal ions, EDTA, or DTT were used as controls. The reactions were quenched by adding 40 μL methanol. Samples were centrifuged, and then analyzed by UHPLC as described above for pH profile studies.

Compound	CMP-Sia Yield (%) [1] [%]	Sialoside yield (%) 20 h (MBP-AbGtr18-His6)	Activity of His6-AbGtr18 towards acceptor (in words) (His6-AbGtr18 [2])	Yield (%) 20 h (His6-AbGtr18 [2])	also measured
[N-]=[N+]=NCC(=O)NC1C(O)OC(CO)C(O)C1O (centres unmarked) [ManNAz]	>99	98.4 ± 1.8%			Sialoside yield (%) 0.5 h (MBP-AbGtr18-His6): 57.3 ± 0.4%
C[C@@H](O)[C@@H](N=[N+]=[N-])[C@@H]1OC(O)(C(=O)O)C[C@H](O)[C@H]1N=[N+]=[N-] (some centres unmarked) [Leg5,7diN3]	>99	68.4 ± 1.5%			Sialoside yield (%) 0.5 h (MBP-AbGtr18-His6): 44.3 ± 1.6%; Suitability as donor substrate for MBP-AbGtr18-His6 (in words) (MBP-AbGtr18-His6): suitable but less efficient donor substrates
O=C(O)C1(O)C[C@H](O)[C@@H](O)[C@H]([C@H](O)[C@H](O)CO)O1 (some centres unmarked) [Kdn]	>99	9.6 ± 0.1%			Suitability as donor substrate for MBP-AbGtr18-His6 (in words) (MBP-AbGtr18-His6): poor donor substrates
CC(=O)N[C@H]1[C@H](OCCCNC(=O)OCc2ccccc2)O[C@H](CO)[C@H](O)[C@@H]1O [GalNAcβProNHCbz]			much lower efficiencies	33.5 ± 0.8%	Yield (%) 15 min (His6-AbGtr18 [2]): 1.7 ± 0.2%
[Cl-].[Cl-].[Zn+2] [Zn^2+, ZnCl2]					Effect on the activity of AbGtr18 (His6-AbGtr18 [3]): almost abolished its activity completely
CC(=O)N[C@H]1[C@@H](OCCCNC(=O)OCc2ccccc2)O[C@H](CO)[C@@H](O)[C@@H]1O [GlcNAcαProNHCbz]			much lower efficiencies	20.4 ± 0.1%	Yield (%) 15 min (His6-AbGtr18 [2]): 0.5 ± 0.1%
O=[N+]([O-])c1ccc(O[C@@H]2O[C@H](CO)[C@H](O)[C@H](O)[C@H]2O)cc1 [GalβpNP, 4-nitrophenyl β-D-galactopyranoside]			trace activity	1.6 ± 0.1%	
CC(=O)N[C@@H]([C@H](O)[C@H](NC(C)=O)[C@@H](O)CC(=O)C(=O)O)[C@@H](C)O [CMP-Leg5,7Ac2, 5,7-diacetamido-3,5,7,9-tetradeoxy-D-glycero-D-galacto-non-2-ulosonic acid]	>99	72.6 ± 0.1% and 99.0 ± 0.6%			Sialoside yield (%) 0.5 h (MBP-AbGtr18-His6): 53.5 ± 0.5% and 56.6 ± 1.6%; Suitability as donor substrate for MBP-AbGtr18-His6 (in words) (MBP-AbGtr18-His6): used efficiently
CC(=O)N[C@H]1[C@@H](OCCCNC(=O)OCc2ccccc2)O[C@H](CO)[C@H](O)[C@@H]1O[C@@H]1O[C@H](CO)[C@H](O)[C@H](O)[C@H]1O [Galβ1-3GalNAcαProNHCbz]			trace activity	Trace^[e]	
CC(=O)NC1C(O)CC(OP(=O)(O)OCC2OC(n3ccc(N)nc3=O)C(O)C2O)(C(=O)O)OC1C(N=[N+]=[N-])C(O)CO (centres unmarked) [CMP-Neu5Ac7N3]					Suitability as donor substrate for MBP-AbGtr18-His6 (in words) (MBP-AbGtr18-His6): suitable but less efficient donor substrates
[Cl-].[Cl-].[Mg+2] [Mg^2+, MgCl2]					Effect on the activity of AbGtr18 (His6-AbGtr18 [3]): no significant effect; Effect of increasing Mg^2+ concentration on the activity of His6-AbGtr18 (His6-AbGtr18 [3]; up to 50 mM): decrease the activity
CC(=O)N[C@H]1[C@@H](OCCCNC(=O)OCc2ccccc2)O[C@H](CO)[C@H](O)[C@@H]1O [GalNAcαProNHCbz]			lower efficiency	82.5 ± 0.6%	Yield (%) 15 min (His6-AbGtr18 [2]): 14.6 ± 1.1%
O=C[C@@H](O)[C@@H](O)[C@H](O)[C@H](O)CO [Mannose]	77.7 ± 1.6	5.0 ± 0.3%			
CC(=O)N[C@@H]1C(O)O[C@H](CN=[N+]=[N-])[C@@H](O)[C@@H]1O (some centres unmarked) [ManNAc6N3]	>99	96.0 ± 2.1%			Sialoside yield (%) 0.5 h (MBP-AbGtr18-His6): 55.5 ± 0.6%
CC(=O)N[C@H]1[C@H]([C@@H](O)[C@@H](O)CO)O[C@@](O)(C(=O)O)C[C@@H]1O [Neu5Ac]	>99	93.3 ± 0.6%			Sialoside yield (%) 0.5 h (MBP-AbGtr18-His6): 47.4 ± 1.7%; Suitability as donor substrate for MBP-AbGtr18-His6 (in words) (MBP-AbGtr18-His6): efficient
CC(=O)N[C@H]1[C@H](OCCCNC(=O)OCc2ccccc2)O[C@H](CO)[C@@H](O)[C@@H]1O [GlcNAcβProNHCbz]			trace activity	1.0 ± 0.1%	
CC(=O)N[C@H]1[C@H](O)[C@H](NC(C)=O)C(O)O[C@@H]1CO (some centres unmarked) [Man2,4diNAc]	51.5 ± 0.9	30.3 ± 0.3%			Sialoside yield (%) 0.5 h (MBP-AbGtr18-His6): 5.5 ± 0.1%
CC(=O)N[C@H]1[C@@H](O)[C@H](O)[C@@H](CO)O[C@@H]1O [ManNAc]	>99	71.1 ± 0.4%			Sialoside yield (%) 0.5 h (MBP-AbGtr18-His6): 37.6 ± 0.4%
CC(=O)NC[C@H]1OC(O)[C@@H](NC(C)=O)[C@@H](O)[C@@H]1NC(C)=O (some centres unmarked) [Man2,4,6triNAc]	24.1 ± 1.1	2.8 ± 0.1%			
O[C@H](CS)[C@H](O)CS (racemic) [DTT, dithiothreitol]					Effect on the activity of AbGtr18 (His6-AbGtr18 [3]): no significant effect

Compound	CMP-Sia Yield (%) [1] [%]	Sialoside yield (%) 20 h (MBP-AbGtr18-His6)	Activity of His6-AbGtr18 towards acceptor (in words) (His6-AbGtr18 [2])	Yield (%) 20 h (His6-AbGtr18 [2])	also measured
[N-]=[N+]=NCC(O)C(N=[N+]=[N-])C1OC(OP(=O)(O)OCC2OC(n3ccc(N)nc3=O)C(O)C2O)(C(=O)O)CC(O)C1N=[N+]=[N-] (centres unmarked) [CMP-Neu5,7,9triN3]					Suitability as donor substrate for MBP-AbGtr18-His6 (in words) (MBP-AbGtr18-His6): limited activity
O=C(O)CN(CCN(CC(=O)O)CC(=O)O)CC(=O)O [EDTA, ethylenediaminetetraacetic acid]					Effect on the activity of AbGtr18 (His6-AbGtr18 [3]): no effect
O=C(NCCCO[C@@H]1O[C@H](CO)[C@@H](O[C@@H]2O[C@H](CO)[C@H](O)[C@H](O)[C@H]2O)[C@H](O)[C@H]1O)OCc1ccccc1 [LacβProNHCbz]			limited activity	13.8 ± 0.2%	
CC(=O)N[C@H]1[C@H]([C@H](O)[C@H](O)CN=[N+]=[N-])OC(OP(=O)(O)OC[C@H]2O[C@@H](n3ccc(N)nc3=O)[C@H](O)[C@@H]2O)(C(=O)O)C[C@@H]1O (some centres unmarked) [CMP-Neu5Ac9N3]					Suitability as donor substrate for MBP-AbGtr18-His6 (in words) (MBP-AbGtr18-His6): efficient
O=C(CO)N[C@@H]1C(O)O[C@H](CO)[C@@H](O)[C@@H]1O (some centres unmarked) [ManNGc]	>99	71.6 ± 2.5%			Sialoside yield (%) 0.5 h (MBP-AbGtr18-His6): 13 ± 0.4%
Nc1ccn([C@@H]2O[C@H](COP(=O)(O)O[C@@]3(C(=O)O)C[C@H](O)[C@@H](NC(=O)CO)[C@H]([C@H](O)[C@H](O)CO)O3)[C@@H](O)[C@H]2O)c(=O)n1 [CMP-Neu5Gc]					Suitability as donor substrate for MBP-AbGtr18-His6 (in words) (MBP-AbGtr18-His6): suitable but less efficient donor substrates
[N-]=[N+]=NCC(=O)N[C@H]1[C@H]([C@H](O)[C@H](O)CO)OC(OP(=O)(O)OC[C@H]2O[C@@H](n3ccc(N)nc3=O)[C@H](O)[C@@H]2O)(C(=O)O)C[C@@H]1O (some centres unmarked) [CMP-Neu5Az]					Suitability as donor substrate for MBP-AbGtr18-His6 (in words) (MBP-AbGtr18-His6): efficient
O=S(=O)([O-])[O-].[Cu+2] [Cu^2+, CuSO4]					Effect on the activity of AbGtr18 (His6-AbGtr18 [3]): decreased the reaction yields
[N-]=[N+]=NC1C(O)CC(OP(=O)(O)OCC2OC(n3ccc(N)nc3=O)C(O)C2O)(C(=O)O)OC1C(O)C(O)CO (centres unmarked) [CMP-Neu5N3]					Suitability as donor substrate for MBP-AbGtr18-His6 (in words) (MBP-AbGtr18-His6): poor donor substrates
[N-]=[N+]=NC1C(O)OC(CO)[C@@H](O)[C@@H]1O (some centres unmarked) [Man2N3]	57.6 ± 0.1	Trace			
CC(=O)N[C@H]1[C@H](OCCCNC(=O)OCc2ccccc2)O[C@H](CO)[C@@H](O[C@@H]2O[C@H](CO)[C@H](O)[C@H](O)[C@H]2O)[C@@H]1O [LacNAcβProNHCbz]			limited activity	7.7 ± 0.1%	
CC(=O)N[C@H]1[C@H](OCCCNC(=O)OCc2ccccc2)O[C@H](CO)[C@@H](O)[C@@H]1O[C@@H]1O[C@H](CO)[C@H](O)[C@H](O)[C@H]1O [Galβ1-3GlcNAcβProNHCbz]			much lower efficiencies	23.9 ± 0.3%	Yield (%) 15 min (His6-AbGtr18 [2]): 0.9 ± 0.1%
GalNAcα2AA			most reactive	78.1 ± 0.6%	Yield (%) 15 min (His6-AbGtr18 [2]): 35.7 ± 2.2%
[Cl][Mn][Cl] [Mn^2+, MnCl2]					Effect on the activity of AbGtr18 (His6-AbGtr18 [3]): almost abolished its activity completely
O=[N+]([O-])c1ccc(O[C@H]2O[C@H](CO)[C@H](O)[C@H](O)[C@H]2O)cc1 [GalαpNP, 4-Nitrophenyl-α-D-galactopyranoside]			much lower efficiencies	16.7 ± 0.2%	
[N-]=[N+]=N[C@@H]([C@@H]1OC(OP(=O)(O)OC[C@H]2O[C@@H](n3ccc(N)nc3=O)[C@H](O)[C@@H]2O)(C(=O)O)C[C@H](O)[C@H]1N=[N+]=[N-])[C@H](O)CO (some centres unmarked) [CMP-Neu5,7diN3]					Suitability as donor substrate for MBP-AbGtr18-His6 (in words) (MBP-AbGtr18-His6): limited activity
CC(=O)N[C@@H]1C(O)O[C@H](CO)[C@@H](N=[N+]=[N-])[C@@H]1O (some centres unmarked) [ManNAc4N3]	84.4 ± 1.6	72.5 ± 0.1%			Sialoside yield (%) 0.5 h (MBP-AbGtr18-His6): 50.6 ± 0.5%
CC(=O)N[C@H]1[C@H](OCCCNC(=O)OCc2ccccc2)O[C@H](CO)[C@H](O)[C@@H]1O[C@@H]1O[C@H](CO)[C@H](O)[C@H](O)[C@H]1O [Galβ1-3GalNAcβProNHCbz]			trace activity	Trace	
[Ca+2].[Cl-].[Cl-] [Ca^2+, CaCl2]					Effect on the activity of AbGtr18 (His6-AbGtr18 [3]): no significant effect
